From patent US20100061928A1, “LABELLED ANALOGUES OF HALOBENZAMIDES AS RADIOPHARMACEUTICALS” (Institut National De La Sante et De La Recherche Medicale …, priority 2006, published 2010)
Counter-ions that a name gives are not always drawn.

Experiments:
[1] = tested on: grafted B16 F0 murine melanoma tumour; experiment: Biodistribution of the ^125I-labelled molecules in the melanoma-bearing mouse (autoradiography of whole-body sections); conditions: for Concentration of radioactivity, B 16 (tumour), Mean / Concentration of radioactivity, Ic (intestinal contents), Mean / Concentration of radioactivity, Sc (stomach contents), Mean / Concentration of radioactivity, blood (measured in the heart cavity), Mean / Concentration of radioactivity, brain, Mean / Concentration of radioactivity, kidney, Mean / Concentration of radioactivity, liver, Mean / Concentration of radioactivity, lungs, Mean / Concentration of radioactivity, muscle (skeletal muscle), Mean / Concentration of radioactivity, pancreas, Mean / Concentration of radioactivity, spleen, Mean / Concentration of radioactivity, uvea (pigmented tissues of the eye), Mean: ^125I-labelled compound; for Biodistribution, Mean, B 16: B 16 tumour
Method: The distribution of the radioactivity of the various compounds in the body (tumour and other organs) is quantified using an Ambis 4000 image analyzer on sections of whole animals. […] All the in vivo experimentation is carried out within the context defined by French legislation relating to animal experimentation.
The B16 F0 melanoma cells are provided by the ATCC and cultured in monolayers in culture medium (MEM, Invitrogen) supplemented with 10% foetal calf serum and antibiotics. The cultures are maintained by subculturing after trypsinization. The cells of the first passages are frozen and stored in liquid nitrogen. For the transplanting, the cells in culture at confluence are detached by trypsinization and washed with phosphate buffer (PBS).
The distribution of the radioactivity present in the sections is analyzed using an AMBIS 4000 analyzer (Scanalytics, CSPI, San Diego, Calif.), which is a proportional counter with a multiwire chamber validated and calibrated beforehand for the monitoring of iodine in the mouse. The measurements require acquisition times of 1000 minutes. […] The value of radioactivity per unit of surface area (cpm/mm^2) is converted to concentration (kBq/g) and expressed as percentage of the injected dose/g of tissue (% ID/g).

tumour = experiment: Dosimetry with regard to the tumour (MIRD programme, extrapolated to ^131I); conditions: for Effective period: extrapolated to 131I labelling; for Biological period: from biodistribution data
[2] = Elimination of the molecules: cumulative urinary and faecal excretion 0-72 hours; format: in vivo, mouse; conditions: for Faecal elimination 0-72 hours (Faeces) / Urinary and faecal elimination 0-72 hours (Total) / Urinary elimination 0-72 hours (Urine): cumulative excretion 0-72 hours; for Faecal elimination 0-72 hours (Faeces) / Urinary elimination 0-72 hours (Urine): mice in metabolic cages; for Urinary and faecal elimination 0-72 hours (Total): urine + faeces

CCN(CC)CCNC(=O)c1cc2cc(I)ccc2[nH]1 [compound 10, N-(2-diethylaminoethyl)-5-iodoindole-2-carboxamide hydrochloride]
Concentration of radioactivity, B 16 (tumour), Mean ([1]; 1 H after i.v. administration): 8.31 % ID/g
Concentration of radioactivity, Ic (intestinal contents), Mean ([1]; 1 H after i.v. administration): 76.74 % ID/g
Concentration of radioactivity, Sc (stomach contents), Mean ([1]; 1 H after i.v. administration): 35.41 % ID/g
Concentration of radioactivity, blood (measured in the heart cavity), Mean ([1]; 1 H after i.v. administration): 1.60 % ID/g
Concentration of radioactivity, brain, Mean ([1]; 1 H after i.v. administration): 4.84 % ID/g
Concentration of radioactivity, kidney, Mean ([1]; 1 H after i.v. administration): 10.87 % ID/g
Concentration of radioactivity, liver, Mean ([1]; 1 H after i.v. administration): 11.86 % ID/g
Concentration of radioactivity, lungs, Mean ([1]; 1 H after i.v. administration): 14.41 % ID/g
Concentration of radioactivity, muscle (skeletal muscle), Mean ([1]; 1 H after i.v. administration): 1.50 % ID/g
Concentration of radioactivity, pancreas, Mean ([1]; 1 H after i.v. administration): 7.15 % ID/g
Concentration of radioactivity, spleen, Mean ([1]; 1 H after i.v. administration): 8.09 % ID/g
Concentration of radioactivity, uvea (pigmented tissues of the eye), Mean ([1]; 1 H after i.v. administration): 11.70 % ID/g
Concentration of radioactivity, B 16 (tumour), Mean ([1]; 3 H after i.v. administration): 10.22 % ID/g
Concentration of radioactivity, Ic (intestinal contents), Mean ([1]; 3 H after i.v. administration): 112.56 % ID/g
Concentration of radioactivity, Sc (stomach contents), Mean ([1]; 3 H after i.v. administration): 18.52 % ID/g
Concentration of radioactivity, blood (measured in the heart cavity), Mean ([1]; 3 H after i.v. administration): 0.79 % ID/g
Concentration of radioactivity, brain, Mean ([1]; 3 H after i.v. administration): 1.73 % ID/g
Concentration of radioactivity, kidney, Mean ([1]; 3 H after i.v. administration): 4.19 % ID/g
Concentration of radioactivity, liver, Mean ([1]; 3 H after i.v. administration): 5.21 % ID/g
Concentration of radioactivity, lungs, Mean ([1]; 3 H after i.v. administration): 3.46 % ID/g
Concentration of radioactivity, muscle (skeletal muscle), Mean ([1]; 3 H after i.v. administration): 0.49 % ID/g
Concentration of radioactivity, pancreas, Mean ([1]; 3 H after i.v. administration): 2.48 % ID/g
Concentration of radioactivity, spleen, Mean ([1]; 3 H after i.v. administration): 2.79 % ID/g
Concentration of radioactivity, uvea (pigmented tissues of the eye), Mean ([1]; 3 H after i.v. administration): 12.78 % ID/g
Concentration of radioactivity, B 16 (tumour), Mean ([1]; 6 H after i.v. administration): 9.84 % ID/g
Concentration of radioactivity, Ic (intestinal contents), Mean ([1]; 6 H after i.v. administration): 79.85 % ID/g
Concentration of radioactivity, Sc (stomach contents), Mean ([1]; 6 H after i.v. administration): 21.84 % ID/g
Concentration of radioactivity, blood (measured in the heart cavity), Mean ([1]; 6 H after i.v. administration): 0.67 % ID/g
Concentration of radioactivity, brain, Mean ([1]; 6 H after i.v. administration): 0.74 % ID/g
Concentration of radioactivity, kidney, Mean ([1]; 6 H after i.v. administration): 2.50 % ID/g
Concentration of radioactivity, liver, Mean ([1]; 6 H after i.v. administration): 3.63 % ID/g
Concentration of radioactivity, lungs, Mean ([1]; 6 H after i.v. administration): 1.70 % ID/g
Concentration of radioactivity, muscle (skeletal muscle), Mean ([1]; 6 H after i.v. administration): 0.31 % ID/g
Concentration of radioactivity, pancreas, Mean ([1]; 6 H after i.v. administration): 1.46 % ID/g
Concentration of radioactivity, spleen, Mean ([1]; 6 H after i.v. administration): 1.68 % ID/g
Concentration of radioactivity, uvea (pigmented tissues of the eye), Mean ([1]; 6 H after i.v. administration): 13.20 % ID/g
Concentration of radioactivity, B 16 (tumour), Mean ([1]; 24 H after i.v. administration): 8.16 % ID/g
Concentration of radioactivity, Ic (intestinal contents), Mean ([1]; 24 H after i.v. administration): 3.31 % ID/g
Concentration of radioactivity, Sc (stomach contents), Mean ([1]; 24 H after i.v. administration): 2.10 % ID/g
Concentration of radioactivity, blood (measured in the heart cavity), Mean ([1]; 24 H after i.v. administration): 0.10 % ID/g
Concentration of radioactivity, brain, Mean ([1]; 24 H after i.v. administration): 0.00 % ID/g
Concentration of radioactivity, kidney, Mean ([1]; 24 H after i.v. administration): 0.83 % ID/g
Concentration of radioactivity, liver, Mean ([1]; 24 H after i.v. administration): 1.61 % ID/g
Concentration of radioactivity, lungs, Mean ([1]; 24 H after i.v. administration): 0.37 % ID/g
Concentration of radioactivity, muscle (skeletal muscle), Mean ([1]; 24 H after i.v. administration): 0.19 % ID/g
Concentration of radioactivity, pancreas, Mean ([1]; 24 H after i.v. administration): 0.09 % ID/g
Concentration of radioactivity, spleen, Mean ([1]; 24 H after i.v. administration): 1.22 % ID/g
Concentration of radioactivity, uvea (pigmented tissues of the eye), Mean ([1]; 24 H after i.v. administration): 8.81 % ID/g
Concentration of radioactivity, B 16 (tumour), Mean ([1]; 72 H after i.v. administration): 0.84 % ID/g
Concentration of radioactivity, Sc (stomach contents), Mean ([1]; 72 H after i.v. administration): 0.04 % ID/g
Concentration of radioactivity, kidney, Mean ([1]; 72 H after i.v. administration): 0.71 % ID/g
Concentration of radioactivity, liver, Mean ([1]; 72 H after i.v. administration): 0.61 % ID/g
Concentration of radioactivity, uvea (pigmented tissues of the eye), Mean ([1]; 72 H after i.v. administration): 5.86 % ID/g
Effective period (tumour): 18.2 h
Biological period (tumour): 20.1 hours
Faecal elimination 0-72 hours (Faeces) [2]: 61.7%
Urinary and faecal elimination 0-72 hours (Total) [2]: 83.2%
Urinary elimination 0-72 hours (Urine) [2]: 21.5%
elimination route (in words) ([2]; urinary versus faecal, 0-72 hours): faecal route predominates

CCCN(CCC)CCCCNC(=O)c1ccc2cc(I)ccc2n1 [compound 49, N-(4-dipropylaminobutyl)-6-iodoquinoline-2-carboxamide dihydrochloride]
Biodistribution, Mean, B 16 ([1]; 1 H): 19.07
Biodistribution, Mean, B 16 ([1]; 3 H): 20.34
Biodistribution, Mean, B 16 ([1]; 6 H): 27.38
Biodistribution, Mean, B 16 ([1]; 24 H): 18.28
Biodistribution, Mean, B 16 ([1]; 72 H): 10.86
Biodistribution, Mean, GB ([1]; 3 H): 50.82
Biodistribution, Mean, GB ([1]; 6 H): 55.80
Biodistribution, Mean, Ic ([1]; 1 H): 24.45
Biodistribution, Mean, Ic ([1]; 3 H): 23.54
Biodistribution, Mean, Ic ([1]; 6 H): 26.72
Biodistribution, Mean, Ic ([1]; 24 H): 1.21
Biodistribution, Mean, Sc ([1]; 1 H): 25.53
Biodistribution, Mean, Sc ([1]; 3 H): 24.89
Biodistribution, Mean, Sc ([1]; 6 H): 22.21
Biodistribution, Mean, Sc ([1]; 24 H): 2.16
tumour concentration, times higher than with BZA ([1]; at 72 hours (FIG. 1B)): 14 times
Biodistribution, Mean, blood ([1]; 1 H): 3.31
Biodistribution, Mean, blood ([1]; 3 H): 3.47
Biodistribution, Mean, blood ([1]; 6 H): 2.50
tumour concentration, % of the injected dose per gram of tumour ([1]; from the first hour): 19.1 % ID/g
Biodistribution, Mean, kidney ([1]; 1 H): 18.29
Biodistribution, Mean, kidney ([1]; 3 H): 13.10
Biodistribution, Mean, kidney ([1]; 6 H): 7.98
Biodistribution, Mean, liver ([1]; 1 H): 13.79
Biodistribution, Mean, liver ([1]; 3 H): 7.77
Biodistribution, Mean, liver ([1]; 6 H): 3.89
Biodistribution, Mean, lungs ([1]; 1 H): 8.33
Biodistribution, Mean, lungs ([1]; 3 H): 6.88
Biodistribution, Mean, lungs ([1]; 6 H): 3.34
Biodistribution, Mean, muscle ([1]; 1 H): 2.00
Biodistribution, Mean, muscle ([1]; 3 H): 1.41
Biodistribution, Mean, muscle ([1]; 6 H): 0.45
Biodistribution, Mean, pancreas ([1]; 1 H): 21.47
Biodistribution, Mean, pancreas ([1]; 3 H): 9.71
Biodistribution, Mean, spleen ([1]; 1 H): 18.88
Biodistribution, Mean, spleen ([1]; 3 H): 16.71
Biodistribution, Mean, thyroid ([1]; 1 H): 28.75
Biodistribution, Mean, thyroid ([1]; 3 H): 125.51
Biodistribution, Mean, thyroid ([1]; 6 H): 16.38
Biodistribution, Mean, thyroid ([1]; 72 H): 53.26
Biodistribution, Mean, uvea ([1]; 1 H): 21.04
Biodistribution, Mean, uvea ([1]; 3 H): 31.76
Biodistribution, Mean, uvea ([1]; 6 H): 28.78
Biodistribution, Mean, uvea ([1]; 24 H): 19.22
Biodistribution, Mean, uvea ([1]; 72 H): 19.78
Effective period (tumour): 51.2 h
Biological period (tumour): 69.7 hours
Faecal elimination 0-72 hours (Faeces) [2]: 19.9%
Urinary and faecal elimination 0-72 hours (Total) [2]: 87.1%
Urinary elimination 0-72 hours (Urine) [2]: 67.2%
